Measurements: patent US5962409A, “Somatostatin-analogous cyclic peptides with inhibitory activity on growth hormone” (priority 1995, dated 1999)

Columns and labels:
[1] = test system: 70 kDa complex (1 or 4 sub-type somatostatin receptors), GH 3 rat cell line; test: Displacement of radioiodinated 11-Tyr somatostatin-14 from somatostatin receptors, 70 kDa complex (gel electrophoresis/autoradiography); assay type: binding; details: 10^-6 M; auto-radiographies in electrophoresis
Experimental: (§1) The study of the binding of the peptides on somatostatin receptors has been carried out according to the displacement method which consists in replacing from the receptors the radioligand (11-Tyr radioiodinated somatostatin 14-) before electrophoretic analysis on a denaturant polyacrylaminde gel (Prevost et al. European J. Cancer, 11, 1589-1592,1993).
(§2) The biological activity was tested on rat and human cell lines, namely a GH 3 rat cell line established starting from a pituitary tumor with two 70 and 57 kDa receptors; MCF7 human cell line established starting from a pleural effusion of a breast carcinoma with two main 57 and 42 kDa receptors and human cell line established starting from a small cell carcinoma of the lung with a 57 kDa receptor.
(§3) The tested peptides were suspended in 0.1% acetic acid at the final concentration of 10 mM and stored at 4° C.
(§4) Tests were carried out at a 10^-6 M concentration.

[2] = test system: 57 kDa complex (somatostatin receptor sub-type 2); test: Displacement of radioiodinated 11-Tyr somatostatin-14 from somatostatin receptors, 57 kDa complex (gel electrophoresis/autoradiography); assay type: binding, rat and human; details: 10^-6 M; auto-radiographies in electrophoresis
Experimental: as §1, §2, §3, §4

Row | displacement of the 57 kDa radioligand-receptor complex [2] | Compound | suppression of the 70 kDa radioligand-receptor complex [1]
1 |  | C[C@H](N)C(=O)NCC(=O)N[C@H]1CSSC[C@@H](C(=O)O)NC(=O)[C@H](CO)NC(=O)[C@H]([C@@H](C)O)NC(=O)[C@H](Cc2ccccc2)NC(=O)[C@H]([C@@H](C)O)NC(=O)[C@H](CCCCN)NC(=O)[C@H](Cc2c[nH]c3ccccc23)NC(=O)[C@H](Cc2ccccc2)NC(=O)[C@H](Cc2ccccc2)NC(=O)[C@H](CC(N)=O)NC(=O)[C@H](CCCCN)NC1=O [somatostatin-14] | suppressed
2 | not | Antarelix | 
